The values that follow come from paper PMC10777848 (Antimicrobial Agents and Chemotherapy, 2023).

Structures are written as SMILES. Where “and” joins values, the source holds several entries; their conditions need not be identical. Equal entries are not always repeated. Where two headings read alike, the source gives them in different places.

The subject of data set [1] is A. baumannii. The experiment in a line: Murine neutropenic lung infection model, PK/PD exposure-response. Format: in vivo, CD-1 mice. As to the method: (§1) Magnitudes associated with 1-log10 and 2-log10 CFU reduction from baseline at 24 hours as well as the exposure required for an 80% reduction in bacterial burden (EC80) were determined from the fitted function.
The test system of data set [2] is A. baumannii. Format: in vivo. Here is the method:
as §1

The nature of data set [3]: Population PK in infected neutropenic mice (two-compartment model). An excerpt: As the plasma PK of neutropenic lung-infected animals matched that of thigh-infected animals, the thigh-infected PK was used for the development of the population PK model and subsequent exposure estimates for doses used in the PK/PD exposure-response analyses. Pharmacokinetic models were fit to time vs. drug concentration profiles generated in infected mice using Phoenix6.2 WinNonLin and NLME. […] Predicted exposures were utilized in the PK/PD analyses as all dosing solutions tested were within the variability of the bioanalytical method (20%).

Data set [4] is described as follows: Distribution into mouse ELF (plasma and BAL sampling). Particulars: 100:25 mg/kg sulbactam:durlobactam SC, neutropenic mice infected with ARC2058.
The subject of data set [5] is 4,038 recent, global, clinical isolates of A. baumannii. Set-up: method as in PMID 36005804. Particulars: 4,038 global clinical isolates, cited from earlier work.
Data set [6] concerns A. baumannii. Description: Murine neutropenic thigh and lung models taken together. Format: in vivo, CD-1 mice. Here is the method: as §1
Details of data set [7]: method as in data on file Entasis Therapeutics. Particulars: mean of mouse plasma protein unbound fractions ex vivo, 0.4 µM to 50 µM; ref data on file Entasis Therapeutics; cited from earlier work.
For data set [8], the system named is A. baumannii isolates. Description: Broth MIC testing (CLSI methodology). The format is cell-based. The settings on record: Acinetobacter baumannii, modal MIC, combination = sulbactam with fixed 4 µg/mL durlobactam. An excerpt:
All strains with an “ARC” designation are part of the Entasis collection of clinical isolates. All isolates have been previously characterized by whole genome sequencing.

Data set [9] relates to A. baumannii. Format: in vivo. Particulars: thigh model; oral 200 mg/kg bid; A. baumannii ARC2058; 24 h.
Data set [10] can be described thus: in vivo. Particulars: CD-1, mouse.
Data set [11] has as its system A. baumannii. Particulars: in vitro pharmacodynamic models; cited from earlier work.
For data set [12] the following is noted: based on total ELF and plasma AUC exposures; cited from earlier work.
Data set [13] deals with A. baumannii. Set-up: method as in PMID 34349751. The settings on record: cited from earlier work.
[14] abbreviates: lung model, A. baumannii ARC2058, SC q6h, 24 h.
[15] abbreviates: thigh model, A. baumannii ARC2058, SC q6h, 24 h.
[16] abbreviates: sulbactam and durlobactam co-administered 4:1 SC, predicted value (% coefficient of variance).
Where [17] appears, read: co-modeled thigh (n = 6 strains), sulbactam alone and combined with durlobactam.
Setting [18] is: thigh, ARC2058, sulbactam only, 24 h.
Where [19] appears, read: thigh, ARC3484, sulbactam:durlobactam 4:1 dosing, 24 h.
Setting [20] is: thigh, ARC5081, sulbactam:durlobactam 4:1 dosing, 24 h.
Where [21] appears, read: thigh, ARC5091, sulbactam:durlobactam 4:1 dosing, 24 h.
[22] abbreviates: thigh, mean of individual CRAB strains, 4:1 dosing.
Where [23] appears, read: thigh (4:1 dose), 5 strains, SUL mean exposure 32.9 to 43.5%T>MIC, 24 h.
Setting [24] is: mean of thigh 4:1, lung 4:1 and thigh fixed SUL dose.

In general, MIC refers to the lowest concentration that inhibits growth of the organism. A word on the AUC: it is the area under the concentration-time curve, a measure of exposure. A higher AUC goes with high exposure.

For `C[C@@H](O)[C@H]1C(=O)N2C(C(=O)O)=C(S[C@@H]3CN[C@H](C(=O)N(C)C)C3)[C@H](C)[C@H]12` [Meropenem, meropenem], in [1] (setting [14]), the “Meropenem %fT>MIC for 1-log10 CFU/g reduction from baseline” value turned out to be 29.4%, the “Meropenem %fT>MIC for 2-log10 CFU/g reduction from baseline” value is reported as 32.2% and the “Meropenem %fT>MIC for EC80” value worked out at 39.7%. Also, in data set [2] (setting [15]), the “Meropenem %fT>MIC for 1-log10 CFU/g reduction from baseline” value came to 27.2%, the “Meropenem %fT>MIC for 2-log10 CFU/g reduction from baseline” value stood at 32.4% and the “Meropenem %fT>MIC for EC80” value is 36.0%.
Regarding `CC1(C)[C@H](C(=O)O)N2C(=O)C[C@H]2S1(=O)=O` [Sulbactam, sulbactam], the “V1 (central compartment volume of distribution)” value in data set [3] (sulbactam alone, SC, predicted value) is 1.8847 L/kg; in data set [3] (setting [16]) it was 1.0177 (7.0) L/kg. For the same compound, the “Ka (absorption rate)” value in data set [3] (sulbactam alone, SC, predicted value (% coefficient of variance)) is on record as 6 (12.5) 1/hr; in data set [3] (setting [16]) it was 12 (8.4) 1/hr. In addition, in data set [4], the “AUC, ELF” value amounted to 10300 ng·h/mL. Further, the “AUC, Plasma” value in data set [4] turned out to be 32300 ng·h/mL. The “Concentration, ELF” value is 5700 ± 1150 ng/mL in data set [4] (1 h), 540 ± 120 ng/mL in data set [4] (3 h), 290 ± 140 ng/mL in [4] (6 h) and 60 ± 10 ng/mL in data set [4] (12 h). Besides, the “Concentration, Plasma” value in data set [4] (1 h) worked out at 18550 ± 5870 ng/mL; in [4] (3 h), 1690 ± 560 ng/mL; in data set [4] (6 h), 100 ± 50 ng/mL; in data set [4] (12 h) it was 20 ± 10 ng/mL. The “Sulbactam %fT>MIC for 2-log10 CFU reduction from baseline” value in [2] (setting [17]) is recorded as 38.2%; in [2] (setting [18]), 31.5%; in data set [2] (setting [19]), 40.2%; in [2] (setting [20]), 28.8%; in data set [2] (setting [21]), 29.3%. Moreover, the “Sulbactam %fT>MIC for EC80” value in data set [2] (setting [17]) is listed as 44.1%; in data set [2] (setting [18]), 47.0%; in data set [2] (setting [19]) it was 42.8%; in [2] (thigh, ARC3486, sulbactam:durlobactam 4:1 dosing, 24 h) it was 55.3%; in [2] (thigh, ARC5079, sulbactam:durlobactam 4:1 dosing, 24 h) it was 53.2%; in data set [2] (setting [20]), 32.0%. Moreover, the “Sulbactam %fT>MIC for EC80” value in data set [2] (setting [21]) was found to be 30.4%. In addition, the “Sulbactam %fT>MIC for 1-log10 CFU reduction from baseline” value in [2] (setting [18]) is 20.5%; in [2] (setting [20]), 26.3%; in data set [2] (setting [21]) it was 26.7%. Also, the “Sulbactam %fT>MIC for 2-log10 CFU reduction from baseline, Mean ± SD” value in data set [2] (setting [22]) is reported as 38.6 ± 10.0%. Moreover, the “Sulbactam %fT>MIC for EC80, Mean ± SD” value in data set [2] (setting [22]) is reported as 42.7 ± 11.6%. Further, the MIC90 of sulbactam in data set [5] (sulbactam alone) is 64 µg/mL; in [5] (with the addition of durlobactam), 2 µg/mL. The “sulbactam fT>MIC at which 1-log10 CFU reduction over 24 hours can be realized” value in data set [6] (both thigh and lung models, in combination with durlobactam, co-modeled across strains) is “exceeds 50%”. For the same compound, in data set [6] (present in vivo study, sulbactam-susceptible isolate ARC2058), the “sulbactam fT>MIC at which 2-log10 CFU reduction was achieved” value is on record as “exceeded 50%”. For the same compound, in [7], the murine unbound fraction is 100%. Further, the MIC is 2 µg/mL in [8] (A. baumannii ARC2058); 16 µg/mL in data set [8] (A. baumannii ARC3484); 32 µg/mL in [8] (A. baumannii ARC3486); 16 µg/mL in data set [8] (A. baumannii ARC5077); 32 µg/mL in [8] (A. baumannii ARC5079); 16 µg/mL in data set [8] (A. baumannii ARC5081). Further, the MIC in [8] (A. baumannii ARC5091) is 8 µg/mL; in data set [8] (A. baumannii ARC5950), 64 µg/mL; in data set [8] (A. baumannii ARC5954), 32 µg/mL; in [8] (A. baumannii ARC5955), 64 µg/mL.
For the compound `C[C@H]1COc2c(N3CCN(C)CC3)c(F)cc3c(=O)c(C(=O)O)cn1c23` [levofloxacin], the “change in log10 CFU (positive control)” value in data set [9] is −2.4 log10 CFU. The “log10 CFU/g reduction (positive control)” value in data set [1] (lung model, oral 200 mg/kg bid, A. baumannii ARC2058, 24 h) stood at 1.8 log10 CFU/g.
`CC1=C[C@@H]2CN(C(=O)N2OS(=O)(=O)O)[C@@H]1C(N)=O` [Durlobactam, durlobactam]: in data set [3] (setting [16]), the “Cl1 (clearance of central compartment)” value is on record as 3.0747 (7.3) L/kg/h, the “Ka (absorption rate)” value is 13.5 (32.6) 1/hr and the “V1 (central compartment volume of distribution)” value was 1.2508 (8.4) L/kg. Moreover, in data set [1] (mouse, in vivo), the “Co-modeled durlobactam fAUC/MIC ratio for 1-log10 CFU reduction from baseline” value is 10.6, the “Co-modeled durlobactam fAUC/MIC ratio for 2-log10 CFU reduction from baseline” value is 22.4 and the “Co-modeled durlobactam fAUC/MIC ratio for EC80” value was found to be 78.6. In [4], the “AUC, ELF” value stood at 4400 ng·h/mL. For the same compound, in data set [4] (1 h), the “Concentration, ELF” value was 2480 ± 910 ng/mL. In addition, in [4] (3 h), the “Concentration, ELF” value came to 260 ± 150 ng/mL. In [4] (6 h), the “Concentration, ELF” value is 2 ± 1 ng/mL and the “Concentration, Plasma” value is 30 ± 10 ng/mL. Besides, the “Concentration, ELF” value in data set [4] (12 h) is “BLQ”. Further, the “Co-modeled durlobactam fAUC/MIC ratio for EC80” value in data set [2] (mouse, in vivo) amounted to 38.2. Also, in data set [2] (setting [23]), the “Co-modeled durlobactam fAUC/MIC ratio for 1-log10 CFU reduction from baseline” value is 8.0, the “Co-modeled durlobactam fAUC/MIC ratio for 2-log10 CFU reduction from baseline” value is 16.0 and the “Co-modeled durlobactam fAUC/MIC ratio for EC80” value is listed as 15.1. The Kp in data set [10] (epithelial lining fluid (ELF) / plasma, subcutaneous) turned out to be 0.63. Further, in [10] (in vivo, sc, 25 mg/kg), the AUC was found to be 7000 ng·h/mL, the Kp was found to be 0.63, the concentration at 1 h was found to be 4070 ± 1790 ng/mL and the concentration at 3 h is 330 ± 130 ng/mL. Besides, the concentration at 12 h in [10] (in vivo, sc, 25 mg/kg) is 10 ± 1 ng/mL. Besides, in data set [11], the “durlobactam AUC/MIC associated with net 1-log10 CFU reduction over 24 hours” value is > 10 and 10. The “ELF penetration observed clinically” value in data set [12] is listed as 37%. Moreover, the “durlobactam fAUC/MIC0-24 at which an additional log10 CFU reduction can be realized” value in data set [6] (both thigh and lung models, in combination with sulbactam) is recorded as ~ 30. Further, the “durlobactam fAUC/MIC0-24 at which 1-log10 CFU reduction over 24 hours can be realized” value in [6] (both thigh and lung models, in combination with sulbactam, co-modeled across strains) is 10 and ~ 10. Moreover, in [6] (setting [24]), the “Durlobactam fAUC/MIC ratio for 1-log10 CFU reduction from baseline, Mean ± SD” value is given as 8.7 ± 1.7; the “Durlobactam fAUC/MIC ratio for 2-log10 CFU reduction from baseline, Mean ± SD” value was determined as 23.4 ± 7.9; the “Durlobactam fAUC/MIC ratio for EC80, Mean ± SD” value is listed as 44.0 ± 32.1. In addition, the murine unbound fraction in [7] is listed as 100%. The “intrinsic antibacterial activity against A. baumannii on its own” value in [13] is given as “no significant intrinsic antibacterial activity”.
